According to patent US20090005443A1, “Treatment of Depression” (priority 2007, published 2009):
Values joined by “and” are separate entries in the source; they are usually repeats but may differ in a detail not shown here. Identical values can stand only once.

System: Patients with MDD
Assay type: in vivo
Conditions: for Ham-D change: baseline to end value, oral tablets, no visit qualifier given; for Ham-D change / Ham-D change (by penultimate visit): individual MDD patient; for Ham-D change (by penultimate visit): baseline to value by penultimate visit; for Reduction in patient depression, measured using the Hamilton-D rating scale: the five patients who completed the trial protocol (three tramadol, two amitriptyline)
Description: A Single Centre, Open Labelled, Comparative, Parallel Pilot Study to Evaluate the Antidepressant Activity of Tramadol in the Treatment of Major Depressive Disorder (MDD).
The investigational drug was administered in tablet form orally, with an initial dose of 200 mg daily for 2 weeks and then maintenance at 200-400 mg daily for a further 14 weeks.
Patients with MDD aged between 18 to 65 years old.
To evaluate the antidepressant activity of tramadol by comparing the change in Ham-D scores of patients with MDD when treated with tramadol as compared with amitriptyline.
Remission is defined as ≦7 on the 17 item Ham-D scale upon completion of week 8 of trial. Response is defined as ≧50% decrease from baseline depression on 17 item Ham-D score upon completion of week 8 of trial. Partial response is defined as <50% but ≧25% decrease from base line depression on 17 item Ham-D Scale. Recovery is defined as at least 8 weeks free from depression, as diagnosed according to DSM-IV-TR criteria.
This was a comparative, single centre, parallel, open-label randomized study in which half of the study population will receive tramadol and the other half will receive amitriptyline.
The primary endpoint is the treatment response of each study subject, as measured on the Ham-D 17-item scale (Hamilton Mass.). Study entry requires a Ham-D score of ≧15. To achieve remission, a cut-off score of ≦7 will be applied. Response will be defined as a ≧50% drop in score and a partial response will be defined as <50% but ≧25% drop in score. Recovery will be defined as at least 8 weeks free of major depression, as diagnosed according to DSM-IV-TR criteria.
In an open-label study comparing the treatment of Major Depressive Disorder with tramadol and amitriptyline, sixteen patients have been enrolled and five have completed the trial protocol. Of those five, three had received tramadol and two had received amitriptyline. […] A further eight patients are displaying solid therapeutic responses and there have been three drop-outs. Information on therapeutic responses of the first 12 patients is summarised below.

Structure (SMILES): CN(C)CCC=C1c2ccccc2CCc2ccccc21 [Amitriptyline, amitriptyline]
- Ham-D change (17-item Ham-D score): 22 to 0
- Ham-D change (by penultimate visit) (17-item Ham-D score): 19 to 4 (by penultimate
- Drop-out because of AE (human, in vivo): Dropped out after Visit 2
- Reduction in patient depression, measured using the Hamilton-D rating scale: clinically significant reduction in patient depression

Structure (SMILES): COc1cccc(C2(O)CCCCC2CN(C)C)c1 (centres unmarked) [Tramadol]
- Ham-D change (17-item Ham-D score): 23 to 0
- Ham-D change (by penultimate visit) (17-item Ham-D score): 26 to 0 (by penultimate and 26 to 4 (by penultimate (2×)
- Ham-D change (by visit 4 of 7) (17-item Ham-D score, baseline to value by visit 4 of 7, individual MDD patient): 18 to 16 (by visit 4 of 7)
- Reduction in patient depression, measured using the Hamilton-D rating scale: clinically significant reduction in patient depression
